Laboratory results published in patent US6720346B2, “Thiazole benzamide derivatives and pharmaceutical compositions for inhibiting cell proliferation” (Agouron Pharmaceuticals, Inc., priority 2001, dated 2004).
pIC50, pKi: −log10 of the molar value. Where a name gives a salt, the structure may show the parent alone.

Assays:
HCT-116 cell line = assay: Inhibition of cell growth, MTT tetrazolium salt assay; format: cell-based; settings: for pIC50: Homo sapiens, HCT-116, 120 h, MTT, three to five days
Outline: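 Cells in McCoy's 5A medium were given 4 h before compound addition in 0.5% (v/v) DMSO, then incubated 3–5 days at 37 °C, 5% CO2. After 4 h with 0.2 mg/mL MTT, DMSO-solubilized formazan was read at 540 nm; 50% and 90% growth-inhibitory concentrations came from semi-log plots against vehicle controls.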

human CDK4/cyclin D3 = target: T1, human CDK4/cyclin D3 (Homo sapiens, UniProt P11802); assay: Inhibition of CDK4/cyclin D retinoblastoma kinase activity (Ki; % inhibition); format: biochemical; settings: for pKi: apparent Ki, CDK4/cyclin D3, Rb substrate
T1 construct: made in house; host or cells: insect cells co-infected with baculovirus vectors
T1 sequence (P11802 whole entry): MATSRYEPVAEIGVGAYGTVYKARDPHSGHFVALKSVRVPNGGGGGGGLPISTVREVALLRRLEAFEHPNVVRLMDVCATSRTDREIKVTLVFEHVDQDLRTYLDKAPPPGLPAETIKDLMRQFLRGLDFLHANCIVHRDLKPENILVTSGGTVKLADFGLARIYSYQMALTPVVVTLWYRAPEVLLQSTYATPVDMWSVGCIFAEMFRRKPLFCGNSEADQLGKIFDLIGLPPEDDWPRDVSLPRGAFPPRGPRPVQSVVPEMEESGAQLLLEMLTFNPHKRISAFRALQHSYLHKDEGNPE
T1 sequence (P30281 1-264 partner limits assumed): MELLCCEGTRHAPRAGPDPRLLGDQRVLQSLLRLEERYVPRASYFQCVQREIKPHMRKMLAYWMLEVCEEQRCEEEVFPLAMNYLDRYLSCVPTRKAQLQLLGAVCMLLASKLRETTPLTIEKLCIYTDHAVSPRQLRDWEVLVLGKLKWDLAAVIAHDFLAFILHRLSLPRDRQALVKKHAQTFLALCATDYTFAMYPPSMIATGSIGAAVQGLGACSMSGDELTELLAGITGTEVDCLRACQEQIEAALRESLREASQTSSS
Outline: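 Insect-cell-expressed CDK4 with truncated cyclin D3 (1-264), 5 nM, phosphorylating His-tagged Rb fragment (386-928) with 25 μM [32/33P]ATP at pH 7.4, 30 °C, 20 min (60 min for tight binders). Filter capture, phosphorimager read; % inhibition at 30 nM compound, Ki from competitive or tight-binding fits.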

CDK2/cyclin A = target: T2, CDK2/cyclin A (Homo sapiens, UniProt P24941); assay: Inhibition of CDK2/cyclin A retinoblastoma kinase activity (Ki; % inhibition); format: biochemical; settings: for pKi: apparent Ki, CDK2/cyclin A, Rb substrate
T2 construct: made in house; host or cells: CDK2: insect cells (baculovirus); cyclin A: E. coli
Outline: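 Radiometric filter assay of CDK2/proteolyzed cyclin A (baculovirus-expressed human CDK2, 10 or 19 nM) phosphorylating an Rb fragment with 25 μM [³²P/³³P]ATP in pH 7.4 HEPES, 2% DMSO, at 30 °C for 60 or 75 min under initial-rate conditions. Library compounds screened at 30 nM for % inhibition; apparent Ki from concentration series fit to competitive or tight-binding inhibition equations.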

[1] = HCT-116 cells, 0.25 μM compound

| CDK4 % Inhibition at 0.03 μM (human CDK4/cyclin D3; 0.03 μM compound) [%] | CDK2 % Inhibition at 0.03 μM (CDK2/cyclin A; 0.03 μM compound) [%] | CDK4 % Inhibition at 0.03 μM (human CDK4/cyclin D3; at 0.03 μM) [%] | CDK2 % Inhibition at 0.03 μM (CDK2/cyclin A; at 0.03 μM) [%] | pIC50 (HCT-116 cell line) | pKi (human CDK4/cyclin D3) | pKi (CDK2/cyclin A) | SMILES | HCT-116 % Inhibition at 0.1 μM (HCT-116 cell line; HCT-116 cells, 0.1 μM compound) [%] | HCT-116 % Inhibition at 0.25 μM (HCT-116 cell line; [1]) [%] | HCT-116 % Inhibition at 0.1 μM (HCT-116 cell line; HCT-116, at 0.1 μM) [%] | HCT-116 % Inhibition at 0.25 μM (HCT-116 cell line; HCT-116, at 0.25 μM) [%] |
| --- | --- | --- | --- | --- | --- | --- | --- | --- | --- | --- | --- |
| −1 | 0 | – | – | – | – | – | Nc1nc(Nc2ccc(C(=O)N(CCCCO)Cc3ccccc3)cc2)sc1C(=O)c1c(F)cccc1F [Example G351] | 24 | 62 | – | – |
| 11 | 18 | – | – | – | – | – | Nc1nc(Nc2ccc(C(=O)N(CCCO)Cc3ccccn3)cc2)sc1C(=O)c1c(F)cccc1F [Example G243] | 31 | 40 | – | – |
| 27 | 18 | – | – | – | – | – | COc1ccc(NC(=O)c2ccc(Nc3nc(N)c(C(=O)c4c(F)cccc4F)s3)cc2)cn1 [Example G215] | 22 | 73 | – | – |
| 11 | −7 | – | – | – | – | – | CC[C@H](C)[C@@H](CO)NC(=O)c1ccc(Nc2nc(N)c(C(=O)c3c(F)cccc3F)s2)cc1 [Example G327] | 8 | 55 | – | – |
| 12 | −3 | – | – | – | – | – | CN(Cc1ccco1)C(=O)c1ccc(Nc2nc(N)c(C(=O)c3c(F)cccc3F)s2)cc1 [Example G307] | 8 | 54 | – | – |
| −3 | 10 | – | – | – | – | – | C[C@@H](CNC(=O)c1ccc(Nc2nc(N)c(C(=O)c3c(F)cccc3F)s2)cc1)c1ccccc1 [Example G375] | 26 | 62 | – | – |
| 6 | −2 | – | – | – | – | – | COc1ccc(CNC(=O)c2ccc(Nc3nc(N)c(C(=O)c4c(F)cccc4F)s3)cc2)cc1OC [Example G345] | 22 | 36 | – | – |
| 45 | 2 | – | – | – | – | – | CC1CCCCN1CCCNC(=O)c1ccc(Nc2nc(N)c(C(=O)c3c(F)cccc3F)s2)cc1 (centres unmarked) [Example G303] | 18 | 72 | – | – |
| 10 | −5 | – | – | – | – | – | CC(=O)c1ccc(NC(=O)c2ccc(Nc3nc(N)c(C(=O)c4c(F)cccc4F)s3)cc2)cc1 [Example G310] | 14 | 53 | – | – |
| 29 | 17 | – | – | – | – | – | Nc1nc(Nc2ccc(C(=O)NCc3ccc(F)c(C(F)(F)F)c3)cc2)sc1C(=O)c1c(F)cccc1F [Example G302] | 17 | 63 | – | – |
| – | – | 26 | 20 | – | – | – | CN(CC#N)C(=O)c1ccc(Nc2nc(N)c(C(=O)c3c(F)cccc3F)s2)cc1 [Example G195] | – | – | 17 | 47 |
| 46 | −1 | – | – | – | – | – | Nc1nc(Nc2ccc(C(=O)N3CCN(c4ccncc4)CC3)cc2)sc1C(=O)c1c(F)cccc1F [Example G311] | 5 | 43 | – | – |
| 13 | 10 | – | – | – | – | – | C=CCNC(=O)c1ccc(Nc2nc(N)c(C(=O)c3c(F)cccc3F)s2)cc1 [Example G219] | 8 | 52 | – | – |
| 39 | 39 | – | – | – | – | – | Cc1ccc(CNC(=O)c2ccc(Nc3nc(N)c(C(=O)c4c(F)cccc4F)s3)cc2)o1 [Example G250] | 31 | 72 | – | – |
| 31 | 29 | – | – | – | – | – | Nc1nc(Nc2ccc(C(=O)NCc3cccc(F)c3)cc2)sc1C(=O)c1c(F)cccc1F [Example G252] | 33 | 67 | – | – |
| 14 | −5 | – | – | – | – | – | COc1ccc(OC)c(CCNC(=O)c2ccc(Nc3nc(N)c(C(=O)c4c(F)cccc4F)s3)cc2)c1 [Example G319] | 17 | 54 | – | – |
| 0 | −20 | – | – | – | – | – | C=CCN(CC=C)C(=O)c1ccc(Nc2nc(N)c(C(=O)c3c(F)cccc3F)s2)cc1 [Example G272] | 10 | 47 | – | – |
| – | – | 18 | 10 | – | – | – | CC(=O)c1cccc(NC(=O)c2ccc(Nc3nc(N)c(C(=O)c4c(F)cccc4F)s3)cc2)c1 [Example G189] | – | – | 13 | 56 |

Further lines, the molecule ahead of its results:

| SMILES | CDK4 % Inhibition at 0.03 μM (human CDK4/cyclin D3; 0.03 μM compound) [%] | CDK2 % Inhibition at 0.03 μM (CDK2/cyclin A; 0.03 μM compound) [%] | CDK4 % Inhibition at 0.03 μM (human CDK4/cyclin D3; at 0.03 μM) [%] | CDK2 % Inhibition at 0.03 μM (CDK2/cyclin A; at 0.03 μM) [%] | pIC50 (HCT-116 cell line) | pKi (human CDK4/cyclin D3) | pKi (CDK2/cyclin A) | HCT-116 % Inhibition at 0.1 μM (HCT-116 cell line; HCT-116 cells, 0.1 μM compound) [%] | HCT-116 % Inhibition at 0.25 μM (HCT-116 cell line; [1]) [%] | HCT-116 % Inhibition at 0.1 μM (HCT-116 cell line; HCT-116, at 0.1 μM) [%] | HCT-116 % Inhibition at 0.25 μM (HCT-116 cell line; HCT-116, at 0.25 μM) [%] |
| --- | --- | --- | --- | --- | --- | --- | --- | --- | --- | --- | --- |
| Nc1nc(Nc2ccc(C(=O)NC3CCc4ccccc43)cc2)sc1C(=O)c1c(F)cccc1F (centres unmarked) [Example G95] | – | – | 18 | 12 | – | – | – | – | – | 32 | 63 |
| Nc1nc(Nc2ccc(C(=O)NCCc3ccccc3)cc2)sc1C(=O)c1c(F)cccc1F [Example G91] | – | – | 9 | −19 | – | – | – | – | – | 34 | 68 |
| COc1ccc(C)c(NC(=O)c2ccc(Nc3nc(N)c(C(=O)c4c(F)cccc4F)s3)cc2)c1 [Example A19, 4-[4-Amino-5-(2,6-difluoro-benzoyl)-thiazol-2-ylamino]-N-(5-methoxy-2-methyl-phenyl)-benzamide] | – | – | – | – | 6.96 | 6.98 | 7.19 | – | – | – | – |
| CSCCC(O)NC(=O)c1ccc(Nc2nc(N)c(C(=O)c3c(F)cccc3F)s2)cc1 (centres unmarked) [Example G108] | – | – | 12 | −5 | – | – | – | – | – | 0 | 60 |
| CC(C)CC(C)NC(=O)c1ccc(Nc2nc(N)c(C(=O)c3c(F)cccc3F)s2)cc1 (centres unmarked) [Example G125] | – | – | 9 | 3 | – | – | – | – | – | 13 | 59 |
| Nc1nc(Nc2ccc(C(=O)NCC3CCCCN3)cc2)sc1C(=O)c1c(F)cccc1F (centres unmarked) [Example A33, 4-[4-Amino-5-(2,6-difluoro-benzoyl)-thiazol-2-ylamino]-N-(piperidin-2RS-ylmethyl)-benzamide Trifluoroacetate Salt] | – | – | – | – | 5.66 | 8.00 | 7.04 | – | – | – | – |
| CC(C)CN(C)C(=O)c1ccc(Nc2nc(N)c(C(=O)c3c(F)cccc3F)s2)cc1 [Example G72] | – | – | 12 | 2 | – | – | – | – | – | – | 54 |
| Nc1nc(Nc2ccc(C(=O)NCC3CC3)cc2)sc1C(=O)c1c(F)cccc1F [Example G144] | – | – | 11 | 0 | – | – | – | – | – | 0 | 57 |
| CCN1CC(NC(=O)c2ccc(Nc3nc(N)c(C(=O)c4c(F)cccc4F)s3)cc2)CN1CC [Example G150] | – | – | 25 | 15 | – | – | – | – | – | 0 | 57 |
| Nc1nc(Nc2ccc(C(=O)NCCO)cc2)sc1C(=O)c1c(Cl)cccc1Cl [Example B2, 4-[4-Amino-5-(2,6-dichloro-benzoyl)-thiazol-2-ylamino]-N-(2-hydroxy-ethyl)-benzamide] | – | – | – | – | 5.44 | 7.74 | 7.02 | – | – | – | – |
| COC(CNC(=O)c1ccc(Nc2nc(N)c(C(=O)c3c(F)cccc3F)s2)cc1)OC [Example G97] | – | – | 11 | 2 | – | – | – | – | – | 28 | 56 |
| Nc1nc(Nc2ccc(C(=O)Nc3cccc4ncccc34)cc2)sc1C(=O)c1c(F)cccc1F [Example G67] | – | – | 12 | 25 | – | – | – | – | – | – | 82 |
| Nc1nc(Nc2ccc(C(=O)NCc3ccc4c(c3)OCO4)cc2)sc1C(=O)c1c(F)cccc1F [Example G172] | – | – | 54 | 36 | – | – | – | – | – | 37 | 61 |
| COc1cc(NC(=O)c2ccc(Nc3nc(N)c(C(=O)c4c(F)cccc4F)s3)cc2)ccc1C [Example G138] | – | – | 17 | 7 | – | – | – | – | – | 0 | 65 |
| Nc1nc(Nc2ccc(C(=O)Nc3ccccc3N3CCOCC3)cc2)sc1C(=O)c1c(F)cccc1F [Example G146] | – | – | 7 | 6 | – | – | – | – | – | 1 | 52 |
| Nc1nc(Nc2ccc(C(=O)NCCOc3ccccc3)cc2)sc1C(=O)c1c(F)cccc1F [Example G113] | – | – | 43 | 51 | – | – | – | – | – | 26 | 80 |
